The text below walks through data of publication PMC11855827, “High-Throughput Screening of Five Compound Libraries for Anthelmintic Activity and Toxicity Leads to the Discovery of Two Flavonoid Compounds” (International Journal of Molecular Sciences, 2025).

Values joined by “and” are separate entries in the source; they are usually repeats but may differ in a detail not shown here. Equal values may be shown once.

The subject of this test is C. elegans. The note with it: Table S2, C. elegans SS assay, 110 μM, averages of 4 data points.

In the case of `CC[C@]1(O)C[C@@H]2CN(CCc3c([nH]c4ccccc34)[C@@](C(=O)OC)(c3cc4c(cc3OC)N(C)[C@H]3[C@@](O)(C(=O)OC)[C@H](OC(C)=O)[C@]5(CC)C=CCN6CC[C@]43[C@@H]65)C2)C1.O=S(=O)(O)O` [Vinblastine (sulfate)], the “Percentage of motility inhibition 0 h” value is 0% and 8%; the “Percentage of motility inhibition 24 h” value was 0% and 1%.

For the compound `Br.O=C(CC1NCCCC1O)Cn1cnc2cc(Br)c(Cl)cc2c1=O` (stereo not drawn) [Halofuginone (hydrobromide)], the “Percentage of motility inhibition 0 h” value was 4% and the “Percentage of motility inhibition 24 h” value was 0%.

Turning to `C=C[C@H]1CN2CC[C@H]1C[C@H]2[C@H](O)c1ccnc2ccc(OC)cc12.Cl.O.O` [Quinine (hydrochloride dihydrate)], the “Percentage of motility inhibition 24 h” value was 8%.

Kansuiphorin C: the “Percentage of motility inhibition 0 h” value was 5% and the “Percentage of motility inhibition 24 h” value worked out at 29%.

Take `Cl.OC[C@H]1NC[C@@H](O)[C@@H](O)[C@@H]1O` [1‐Deoxymannojirimycin (hydrochloride)]: the “Percentage of motility inhibition 0 h” value turned out to be 32% and the “Percentage of motility inhibition 24 h” value was 11%.

For the compound `CC(=O)OCC1=C(C(=O)O)N2C(=O)[C@@H](N)[C@H]2SC1` [7‐Aminocephalosporanic acid], the “Percentage of motility inhibition 0 h” value worked out at 3% and the “Percentage of motility inhibition 24 h” value is on record as 0%.

With `CC(C)(O[C@@H]1O[C@H](CO)[C@@H](O)[C@H](O)[C@H]1O)[C@@H]1CC[C@](O)(CO)[C@H]2CC(=O)[C@@](C)(O)[C@@H]2C1` [Atractyloside A], the “Percentage of motility inhibition 0 h” value came out at 13% and the “Percentage of motility inhibition 24 h” value is recorded as 28%.

Regarding `CCN1C[C@]2(COC)CC[C@H](OC)C34C1C([C@H](OC)[C@@H]32)[C@]1(OC(C)=O)[C@@H]2[C@H]4C[C@@](O)([C@@H]2OC(=O)c2ccccc2)[C@@H](OC)[C@@H]1O` [3‐Deoxyaconitine], the “Percentage of motility inhibition 0 h” value is 9% and the “Percentage of motility inhibition 24 h” value is 0%.

Regarding `COc1cc2c(cc1OC)[C@@H]1Cc3ccc(OC)c(OC)c3CN1CC2` [Rotundine], the “Percentage of motility inhibition 24 h” value was 12%.

In the case of `C=C1C2CC3(C1O)C1CC4C5(C)CCC(O)C4(C1N(CC)C5)C3CC2O` (stereo not drawn) [12‐Epinapelline], the “Percentage of motility inhibition 0 h” value is recorded as 0% and the “Percentage of motility inhibition 24 h” value was 9%.

Regarding `C[C@@H]1O[C@@H](OC[C@H]2O[C@@H](Oc3c(-c4ccc(O)c(O)c4)oc4cc(O)cc(O)c4c3=O)[C@H](O)[C@@H](O)[C@@H]2O)[C@H](O)[C@H](O)[C@H]1O.O` [Rutin (hydrate)], the “Percentage of motility inhibition 0 h” value is on record as 2% and the “Percentage of motility inhibition 24 h” value turned out to be 8%.

Turning to `CS(=O)(=O)O.C[C@H]1NCc2cc(-c3ccc4c(=O)c(C(=O)O)cn(C5CC5)c4c3OC(F)F)ccc21.O` [Garenoxacin (Mesylate hydrate)], the “Percentage of motility inhibition 0 h” value amounted to 61% and the “Percentage of motility inhibition 24 h” value is given as 25%.

On to `CC(CC(=O)CC(C)(O)C1CC(=O)C2(C)C3=C(C(=O)CC12C)C1(C)CCC(=O)C(C)(C)C1CC3O)C(=O)O` (stereo not drawn) [Ganoderic acid N], for which the “Percentage of motility inhibition 0 h” value was 0% and the “Percentage of motility inhibition 24 h” value is listed as 0%.

In the case of Neoline, the “Percentage of motility inhibition 0 h” value came to 21% and the “Percentage of motility inhibition 24 h” value is reported as 1%.

`CC1(C)CC[C@]2(C(=O)O)CC[C@]3(C)C(=CC[C@@H]4[C@@]5(C)CC[C@H](O[C@@H]6O[C@H](C(=O)O)[C@@H](O)[C@H](O[C@@H]7OC[C@@H](O)[C@H](O)[C@H]7O[C@@H]7O[C@H](CO)[C@@H](O)[C@H](O)[C@H]7O)[C@H]6O)C(C)(C)[C@@H]5CC[C@]43C)[C@@H]2C1`: the “Percentage of motility inhibition 0 h” value is 0% and the “Percentage of motility inhibition 24 h” value is 0%.

With `CN1C[C@H](O)C[C@H]1C(=O)O` [4‐Hydroxyhygric acid], the “Percentage of motility inhibition 0 h” value is reported as 21% and the “Percentage of motility inhibition 24 h” value stood at 0%.
